Assay results taken from US20080146599A1, “Pyrimidine Compounds Having Tie-2 (Tek) Inhibitory Activity” (ASTRAZENECA AB, priority 2005, published 2008).
Like-named read-outs stand apart in the source and are kept apart here.

Assays:
[1] = target: T1, Tie2 receptor tyrosine kinase (Homo sapiens, UniProt Q02763); assay: In vitro receptor tyrosine kinase inhibition assay (ELISA based microtitre plate assay); assay type: biochemical; conditions: recombinant human Tie2 kinase domain lysate, ATP 5 micromolar or Km; read-out: IC50 (μM) Test (a): Inhibition of Tie2 receptor tyrosine kinase in vitro
T1 construct: consist of only the intracellular portion C-terminal portion of the respective receptor, within which is found the kinase domain; made in house; host or cells: baculovirus/Sf21 insect cells (or alternative equivalent); cleared lysate used, not purified protein
T1 sequence (Q02763 770-1124 limits assumed): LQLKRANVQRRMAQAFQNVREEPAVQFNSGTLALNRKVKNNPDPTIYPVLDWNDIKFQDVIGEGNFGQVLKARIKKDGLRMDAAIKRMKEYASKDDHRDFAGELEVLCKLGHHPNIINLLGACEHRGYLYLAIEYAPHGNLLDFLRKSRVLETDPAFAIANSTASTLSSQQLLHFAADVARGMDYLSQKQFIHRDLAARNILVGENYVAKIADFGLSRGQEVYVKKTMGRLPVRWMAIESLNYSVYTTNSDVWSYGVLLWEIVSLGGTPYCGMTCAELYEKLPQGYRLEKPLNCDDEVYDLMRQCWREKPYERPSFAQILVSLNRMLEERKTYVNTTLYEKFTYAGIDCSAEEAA
Experimental: Constitutive kinase activity of these recombinant proteins was determined by their ability to phosphorylate a synthetic peptide (made up of a random co-polymer of Glutamic Acid, Alanine and Tyrosine in the ratio of 6:3:1). […] Plates were washed in 50 mM HEPES pH 7.4 at room temperature to remove any excess unbound synthetic peptide.
The immobilised phospho-peptide product of the reaction was detected by immunological methods.
Kinase inhibition for a given compound was expressed as an IC50 value. […] The range of phosphorylation was calculated from the positive (vehicle plus ATP) and negative (vehicle minus ATP) control values.

[2] = target: T2, Tie2 receptor (Homo sapiens, UniProt Q02763); assay: Cellular Tie2 autophosphorylation assay (Ang1 ligand stimulated); assay type: cell-based
T2 construct: one can use natural cell lines or primary cells which are known to express the receptor of choice; endogenous in cells; host or cells: EA.hy926/B3 cells
T2 sequence (Q02763 23-1124): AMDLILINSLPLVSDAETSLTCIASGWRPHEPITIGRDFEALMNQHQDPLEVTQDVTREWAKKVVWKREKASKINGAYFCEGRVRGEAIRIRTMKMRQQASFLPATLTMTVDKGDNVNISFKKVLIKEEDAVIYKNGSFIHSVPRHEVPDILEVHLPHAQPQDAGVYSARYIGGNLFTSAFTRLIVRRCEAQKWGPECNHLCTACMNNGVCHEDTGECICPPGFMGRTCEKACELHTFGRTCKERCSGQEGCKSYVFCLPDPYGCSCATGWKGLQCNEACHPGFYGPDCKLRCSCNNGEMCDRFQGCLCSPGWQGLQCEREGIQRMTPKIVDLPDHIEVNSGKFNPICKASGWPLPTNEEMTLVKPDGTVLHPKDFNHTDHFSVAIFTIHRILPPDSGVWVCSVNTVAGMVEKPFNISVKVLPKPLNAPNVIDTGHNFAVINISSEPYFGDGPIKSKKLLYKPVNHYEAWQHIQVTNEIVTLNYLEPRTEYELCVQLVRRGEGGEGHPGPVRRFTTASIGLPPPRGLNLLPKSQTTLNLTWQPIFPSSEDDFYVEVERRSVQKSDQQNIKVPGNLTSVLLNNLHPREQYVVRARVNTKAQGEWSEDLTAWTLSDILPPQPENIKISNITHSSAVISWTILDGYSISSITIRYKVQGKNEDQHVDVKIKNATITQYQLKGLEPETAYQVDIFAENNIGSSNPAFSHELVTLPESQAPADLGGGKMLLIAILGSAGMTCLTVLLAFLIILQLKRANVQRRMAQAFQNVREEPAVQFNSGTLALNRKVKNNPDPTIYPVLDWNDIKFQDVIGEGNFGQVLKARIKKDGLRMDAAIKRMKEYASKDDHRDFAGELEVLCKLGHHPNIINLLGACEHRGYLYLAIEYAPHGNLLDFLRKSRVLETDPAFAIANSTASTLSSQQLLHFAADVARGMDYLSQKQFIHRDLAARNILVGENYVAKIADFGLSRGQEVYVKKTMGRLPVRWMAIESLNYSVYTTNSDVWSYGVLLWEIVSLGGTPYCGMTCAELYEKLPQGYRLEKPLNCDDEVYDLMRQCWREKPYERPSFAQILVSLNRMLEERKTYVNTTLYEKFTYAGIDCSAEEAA

[3] = whole cells, for example EA.hy926/B3, Ang1 ligand stimulated, read-out: IC50 (μM) Test (b): Inhibition of autophosphorylation of Tie2 receptor tyrosine kinase

Compound	IC50 [1]	IC50 [2, 3]	IC50 [2]
Nc1ncnc(N)c1C#Cc1cccc(NS(=O)(=O)c2cc(F)ccc2F)c1 [Example 6, N-{3-[(4,6-diaminopyrimidin-5-yl)ethynyl]phenyl}-2,5-difluorobenzenesulfonamide]	0.4 µM	0.34 µM	–
Nc1ncnc(N)c1C#Cc1cccc(NS(=O)(=O)c2cccc(Cl)c2Cl)c1 [Example 3, 2,3-dichloro-N-{3-[(4,6-diaminopyrimidin-5-yl)ethynyl]phenyl}benzenesulfonamide]	3.7 µM	–	0.29 µM
Nc1ncnc(N)c1C#Cc1cccc(NS(=O)(=O)c2ccccc2Cl)c1 [Example 1, 2-chloro-N-{3-[(4,6-diaminopyrimidin-5-yl)ethynyl]phenyl}benzenesulfonamide]	7.5 µM	0.78 µM	–
